In ChEMBL document CHEMBL1201862, “PubChem BioAssay data set” (2004):
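How tested: cells in 96-well plates exposed to compound for 48 hours at five concentrations. Abbreviation: GI50, concentration required for 50% inhibition of growth.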 Active and inactive are the calls of the source. Cut-off read from the data, not from the text of the source: active = GI50 up to about 1.1 µM and inactive = higher.

How the values were obtained:
Assay in all cases: NCI tumour cell line growth inhibition, 48 h
[1] = test system: 786-0
[2] = test system: HCT-15
[3] = test system: HL-60
[4] = test system: HOP-92
[5] = test system: HT-29
[6] = test system: Hs-578T
[7] = test system: IGROV-1
[8] = test system: LOX IMVI
[9] = test system: MDA-MB-231
[10] = test system: MDA-MB-435
[11] = test system: NCI-H226
[12] = test system: NCI/ADR-RES
[13] = test system: OVCAR-3
[14] = test system: OVCAR-8
[15] = test system: RPMI-8226
[16] = test system: RXF 393
[17] = test system: SF-268
[18] = test system: SK-MEL-28
[19] = test system: SNB-19
[20] = test system: TK-10

| Compound | GI50 [1] | GI50 [2] | GI50 [3] | GI50 [4] | GI50 [5] | GI50 [6] | GI50 [7] | GI50 [8] | GI50 [9] | GI50 [10] | GI50 [11] | GI50 [12] | GI50 [13] | GI50 [14] | GI50 [15] | GI50 [16] | GI50 [17] | GI50 [18] | GI50 [19] | GI50 [20] |
| --- | --- | --- | --- | --- | --- | --- | --- | --- | --- | --- | --- | --- | --- | --- | --- | --- | --- | --- | --- | --- |
| C(#CC1(Nc2ccccc2)CCN(Cc2ccccc2)CC1)C1(Nc2ccccc2)CCN(Cc2ccccc2)CC1 | 17.3 µM (inactive) | 22.2 µM | 1.56 µM (inactive) | 4.95 µM (inactive) | 4.72 µM (inactive) | 10 µM (inactive) | 22.9 µM (inactive) | 5.14 µM (inactive) | 16.3 µM (inactive) | 25.8 µM (inactive) | 26.7 µM (inactive) | 34.7 µM (inactive) | 37.8 µM (inactive) | 21.6 µM (inactive) | 1.18 µM (inactive) | 12.5 µM (inactive) | 29.1 µM (inactive) | 4.8 µM (inactive) | 23.8 µM (inactive) | 13.2 µM (inactive) |
| CCOC(=O)c1nc2ccc(C(F)(F)F)cc2nc1Oc1cc(OC)c(OC)c(OC)c1 | 13.5 µM (inactive) | 72.9 µM | > 100 µM (inactive) | 14.5 µM (inactive) | 78.2 µM (inactive) | 16.8 µM (inactive) | 51.1 µM (inactive) | > 100 µM (inactive) | 87.7 µM (inactive) | > 100 µM (inactive) | 27.2 µM (inactive) | 30.9 µM (inactive) | > 100 µM (inactive) | 38.3 µM (inactive) | > 100 µM (inactive) | 28.7 µM (inactive) | 35.6 µM (inactive) | > 100 µM (inactive) | 27.8 µM (inactive) | 75.3 µM (inactive) |
| CN1CCc2c(sc3ncn(Nc4ccc(F)cc4)c(=N)c23)C1 | > 100 µM (inactive) | > 100 µM | > 100 µM (inactive) | > 100 µM (inactive) | > 100 µM (inactive) | > 100 µM (inactive) | > 100 µM (inactive) | > 100 µM (inactive) | > 100 µM (inactive) | > 100 µM (inactive) | 92 µM (inactive) | > 100 µM (inactive) | > 100 µM (inactive) | > 100 µM (inactive) | > 100 µM (inactive) | > 100 µM (inactive) | > 100 µM (inactive) | > 100 µM (inactive) | > 100 µM (inactive) | > 100 µM (inactive) |
| Cc1cc(-c2nc3cc(F)ccc3s2)ccc1N | 22.2 µM (inactive) | 7.96 µM | > 28.1 µM (inactive) | 18.7 µM (inactive) | 29 µM (inactive) | 26.5 µM (inactive) | < 0.01 µM (active) | > 56.9 µM (inactive) | 8.11 µM (inactive) | > 55.6 µM (inactive) | < 0.051 µM (active) | 75.9 µM (inactive) | 28.7 µM (inactive) | 36.3 µM (inactive) | > 31.3 µM (inactive) | 17.2 µM (inactive) | 20.3 µM (inactive) | > 100 µM (inactive) | 35.8 µM (inactive) | < 0.01 µM (active) |
| CC(O)C1CC1(CO)CNc1cc(Cl)nc(N)n1 (stereo not given) | > 100 µM (inactive) | > 100 µM | > 100 µM (inactive) | > 100 µM (inactive) | > 100 µM (inactive) | > 100 µM (inactive) | > 100 µM (inactive) | > 100 µM (inactive) | > 100 µM (inactive) | > 100 µM (inactive) | > 100 µM (inactive) | > 100 µM (inactive) | > 100 µM (inactive) | > 100 µM (inactive) | > 100 µM (inactive) | > 100 µM (inactive) | > 100 µM (inactive) | > 100 µM (inactive) | > 100 µM (inactive) | > 100 µM (inactive) |
| CC(NC(=O)N(C)C)NC(=O)N(C)C | > 10 µM (inactive) | > 10 µM | > 10 µM (inactive) | > 10 µM (inactive) | > 10 µM (inactive) | > 10 µM (inactive) | > 10 µM (inactive) | > 10 µM (inactive) | > 10 µM (inactive) | > 10 µM (inactive) | > 10 µM (inactive) | > 10 µM (inactive) | > 10 µM (inactive) | > 10 µM (inactive) | > 10 µM (inactive) | > 10 µM (inactive) | > 10 µM (inactive) | > 10 µM (inactive) | > 10 µM (inactive) | > 10 µM (inactive) |
| OCCCNCC(O)c1ccc(OCc2ccccc2)c(OCc2ccccc2)c1 (stereo not given) | 7.48 µM (inactive) | 13.1 µM | 6.38 µM (inactive) | 7.59 µM (inactive) | 8.24 µM (inactive) | 13.6 µM (inactive) | 10.2 µM (inactive) | 6.35 µM (inactive) | 14 µM (inactive) | 7.8 µM (inactive) | 12.4 µM (inactive) | 18.7 µM (inactive) | 15.9 µM (inactive) | 11.4 µM (inactive) | 8.47 µM (inactive) | 23.4 µM (inactive) | 15.3 µM (inactive) | 8.95 µM (inactive) | 17.3 µM (inactive) | 7.91 µM (inactive) |
| COC(=O)/C=C1/OC(c2ccc(OC)cc2)=C(Cl)C1=O | 12.1 µM (inactive) | 17.5 µM | 3.8 µM (inactive) | 23.1 µM (inactive) | 15.4 µM (inactive) | 25.8 µM (inactive) | 16.9 µM (inactive) | 7.94 µM (inactive) | 12.3 µM (inactive) | 15.6 µM (inactive) | 21.9 µM (inactive) | 25.8 µM (inactive) | 13.3 µM (inactive) | 12.9 µM (inactive) | 3.95 µM (inactive) | 10 µM (inactive) | 16.6 µM (inactive) | 17.3 µM (inactive) | 23 µM (inactive) | 24.3 µM (inactive) |
| CC(C)=CCC/C(C)=C/CC/C(C)=C/CCN(C)CCO | 2.11 µM (inactive) | 3.95 µM | 1.95 µM (inactive) | 3.32 µM (inactive) | 11.2 µM (inactive) | 1.88 µM (inactive) | 2.94 µM (inactive) | 3.15 µM (inactive) | 10.9 µM (inactive) | 4.44 µM (inactive) | 14.9 µM (inactive) | 12.4 µM (inactive) | 13.8 µM (inactive) | 11.7 µM (inactive) | 2.96 µM (inactive) | 7.59 µM (inactive) | 12.2 µM (inactive) | 8.45 µM (inactive) | 8.07 µM (inactive) | 6 µM (inactive) |
| CN(C)CCNC(=O)c1cccc2[nH]c(-c3ccncc3)nc12 | 2.04 µM (inactive) | 2.89 µM | 1.01 µM (active) | 6.82 µM (inactive) | 2.61 µM (inactive) | 4.59 µM (inactive) | 7.5 µM (inactive) | 0.733 µM (active) | 3.24 µM (inactive) | 1.84 µM (inactive) | 15.2 µM (inactive) | 13.2 µM (inactive) | 9.62 µM (inactive) | 6.68 µM (inactive) | 3 µM (inactive) | 5.58 µM (inactive) | 11.4 µM (inactive) | 1.86 µM (inactive) | 10.7 µM (inactive) | 6.5 µM (inactive) |
| O=c1[nH]nc(Cc2ccccc2)n1/N=C\CC/C=N\n1c(Cc2ccccc2)n[nH]c1=O | 29.5 µM (inactive) | 19.9 µM | 21.9 µM (inactive) | 41.8 µM (inactive) | 23.4 µM (inactive) | 20.2 µM (inactive) | 14.3 µM (inactive) | 15.7 µM (inactive) | 61.9 µM (inactive) | 34.6 µM (inactive) | 33.9 µM (inactive) | 19.4 µM (inactive) | 61.7 µM (inactive) | 23.1 µM (inactive) | 21.5 µM (inactive) | 24.3 µM (inactive) | 23.8 µM (inactive) | 30.1 µM (inactive) | 42.9 µM (inactive) | > 100 µM (inactive) |
| CCOc1ccccc1/C=C(/C#N)C(N)=O | > 100 µM (inactive) | 59 µM | 21.6 µM (inactive) | > 100 µM (inactive) | > 100 µM (inactive) | > 100 µM (inactive) | > 100 µM (inactive) | > 100 µM (inactive) | > 100 µM (inactive) | 18.2 µM (inactive) | > 100 µM (inactive) | > 100 µM (inactive) | > 100 µM (inactive) | > 100 µM (inactive) | > 100 µM (inactive) | > 100 µM (inactive) | > 100 µM (inactive) | > 100 µM (inactive) | > 100 µM (inactive) | > 100 µM (inactive) |
| CN(C)CCNc1ccc2nnn3c4ccc(O)cc4c(=O)c1c23 | 2.15 µM (inactive) | 1.29 µM | 1.71 µM (inactive) | 4.59 µM (inactive) | 4.28 µM (inactive) | 2.03 µM (inactive) | 1.96 µM (inactive) | 1.5 µM (inactive) | 0.273 µM (active) | 4.07 µM (inactive) | 6.31 µM (inactive) | 1.81 µM (inactive) | 5.73 µM (inactive) | 1.73 µM (inactive) | 2.06 µM (inactive) | 1.68 µM (inactive) | 5.38 µM (inactive) | 10.9 µM (inactive) | 7.89 µM (inactive) | 5.12 µM (inactive) |
| O=c1oc2c/c(=C\c3ccccc3)c(=O)c3cccc1c3-2 | 22.8 µM (inactive) | 36.6 µM | 27.1 µM (inactive) | 19.6 µM (inactive) | 55.6 µM (inactive) | 14.8 µM (inactive) | 23 µM (inactive) | 19.7 µM (inactive) | 31.7 µM (inactive) | 21.4 µM (inactive) | 31.7 µM (inactive) | 33.7 µM (inactive) | 23.6 µM (inactive) | 19.8 µM (inactive) | 36.2 µM (inactive) | 32.5 µM (inactive) | 24.1 µM (inactive) | 36.1 µM (inactive) | 31.8 µM (inactive) | > 100 µM (inactive) |
